Read-outs that look alike come from different tables or passages of the source.
How the values were obtained:
[1] = system: MCF-7 (human breast cancer); assay: SRB cytotoxicity assay, MCF-7 cells; assay type: cell-based; conditions: read-out: IC50 MCF-7
Method: (§1) The methanol extracts and the isolated compounds were evaluated for their cytotoxic activities against several cell lines, including murine lymphocytic leukaemia (P-388), human oral epidermoid carcinoma (KB), human colon carcinoma (Col-2 and HT-29), human breast cancer (MCF-7), human lung carcinoma (Lu-1 and A549), rat glioma (ASK), and noncancerous human embryonic kidney cell (HEK-293) by sulforhodamine B (SRB) assay in 96-well microtiter plates (Skehan et al. [1990]). This method measures the cellular protein content of cultures in 96-well microtiter plates. The cell lines were seeded into 96-well microtiter plates and treated with the test compounds at concentrations of 0.16–20 µg/mL for 72 h, except for the P-388 cells, which were treated for 48 h. Then the cell cultures were fixed with 20% trichloroacetic acid (Merck) and stained with 0.4% SRB (Sigma-Aldrich) dissolved in 1% acetic acid (Merck) for 1 h. The cellular-protein-bound dye was extracted with 10 mM unbuffered Trisbase solution (pH 10.5) (Sigma-Aldrich) for the determination of optical density at 510 nm with a microtiter plate reader (Thermo Scientific™ Multiskan™ GO Microplate Spectrophotometer). The cytotoxic potency was expressed as median inhibition concentrations (IC50), the concentration that inhibits 50% of cell viability (µg/mL and µM). The IC50 values were determined from the nonlinear regression curve fit in GraphPad Prism software (version 5). Ellipticine (Sigma-Aldrich), a cytotoxic plant alkaloid causing topoisomerase II inhibition and DNA intercalation, was used as a positive control.

[2] = system: P-388 (murine lymphocytic leukaemia); assay: SRB cytotoxicity assay, P-388 cells; assay type: cell-based; conditions: Mus musculus, read-out: IC50 P-388
Method: as §1

[3] = system: KB (human oral epidermoid carcinoma); assay: SRB cytotoxicity assay, KB cells; assay type: cell-based; conditions: 72 h, read-out: IC50 KB
Method: as §1

[4] = system: Hek-293 (noncancerous human embryonic kidney cell); assay: SRB cytotoxicity assay, Hek-293 cells; assay type: cell-based; conditions: read-out: IC50 Hek-293
Method: as §1

[5] = system: A549 (human lung carcinoma); assay: SRB cytotoxicity assay, A549 cells; assay type: cell-based; conditions: read-out: IC50 A549
Method: as §1

[6] = system: HT-29 (human colon carcinoma); assay: SRB cytotoxicity assay, HT-29 cells; assay type: cell-based; conditions: read-out: IC50 HT-29
Method: as §1

[7] = system: ASK (rat glioma); assay: SRB cytotoxicity assay, ASK cells; assay type: cell-based; conditions: 72 h, read-out: IC50 ASK
Method: as §1

[8] = system: P-388, KB, HT-29, MCF-7, A549, ASK and Hek-293 cells; assay: SRB cytotoxicity assay, panel of tested cell lines (summary statements); assay type: cell-based
Method: as §1

[9] = MCF7, SRB assay, 0.16–20 µg/mL, 72 h
[10] = P388, SRB assay, 0.16–20 µg/mL, 48 h
[11] = Homo sapiens, HEK293, 72 h, SRB assay, non-cancerous cells, 0.16–20 µg/mL, 72 h
[12] = A549, SRB assay, 0.16–20 µg/mL, 72 h
[13] = HT-29, SRB assay, 0.16–20 µg/mL, 72 h
[14] = read-out: IC50 values, range for some of the tested cells
[15] = SRB assay, non-cancerous cells, 0.16–20 µg/mL, 72 h
[16] = read-out: IC50 values, range against all tested cell lines

Compound	IC50 [1, 9]	IC50 [2, 10]	IC50 ([3]; SRB assay, 0.16–20 µg/mL)	IC50 [4, 11]	IC50 [5, 12]	IC50 [6, 13]	IC50 ([7]; SRB assay, 0.16–20 µg/mL)	IC50 [8, 14]	IC50 [4, 15]	IC50 ([1]; MCF7, 72 h)	IC50 ([2]; P388, 48 h)	IC50 [8, 16]	IC50 [3]	IC50 ([4]; Homo sapiens, HEK293, 72 h)	IC50 ([5]; A549, 72 h)	IC50 ([6]; HT-29, 72 h)	IC50 [7]	melting point	IC50 ([8]; P-338, HT-29, MCF-7 and A549, read-out: IC50 values, range over four tested cell lines)
COc1ccc(C2OCC3C(c4ccc(OC)c(OC)c4)OCC23)cc1OC (single isomer, unassigned; (-)) [Compound 1, (–)-epieudesmin]	> 20 µM	> 20 µM	> 20 µM	> 20 µM	> 20 µM	> 20 µM	> 20 µM												
COc1cc(C2OCC3C(c4ccc(OC)c(OC)c4)OCC23)ccc1O (single isomer, unassigned; (-)) [Compound 2, (–)-phylligenin]	36.1 ± 1.02 µM	32.5 ± 2.04 µM	> 20 µM	> 20 µM	> 20 µM	> 20 µM	> 20 µM												
COc1ccc(C(=O)[C@H]2CO[C@H](c3ccc(OC)c(OC)c3)[C@H]2CO)cc1OC [Compound 3, magnone A]	4.4 ± 0.1 µM	8.96 ± 0.7 µM	20.6 ± 3.88 µM	> 20 µM	37.9 ± 5.42 µM	27.6 ± 3.53 µM	> 20 µM	2.03 to 19.7 µM	23.2 ± 1.17 µM										
CCC(CCC(C)C1CCC2C3CC=C4CC(OC5OC(CO)C(O)C(O)C5O)CCC4(C)C3CCC12C)C(C)C (stereo not drawn) [Compound 4, stigma-5-en-3-O-β-glucopyranoside]	> 20 µM	> 20 µM	> 20 µM	> 20 µM	> 20 µM	> 20 µM	> 20 µM												
O=C1c2ccccc2-c2c3c(cc4ccnc1c24)OCO3 [Compound 5, liriodenine]										9.2 ± 0.25 µM	9.6 ± 0.58 µM	6.59 to 11 µM	11.02 ± 0.11 µM	8.07 ± 0.11 µM	9.45 ± 0.18 µM	10.6 ± 0.36 µM	10.7 ± 0.95 µM		
COc1cc(C2OCC(C(=O)c3ccc(OC)c(OC)c3)C2CO)ccc1O (stereo not drawn) [Compound 6, mitrephoran]	28.63 ± 0.15 µM	> 20 µM	> 20 µM	> 20 µM	> 20 µM	> 20 µM	> 20 µM											146 to 148 °C	
COc1ccc([C@@H]2Oc3c(OC)cc(CCCO)cc3[C@H]2CO)cc1OC [Compound 7, 3′,4-O-dimethylcedrusin]	3.77 ± 0.05 µM	25.9 ± 2.99 µM	2.03 ± 0.11 µM	8.48 ± 4.04 µM	10.3 ± 2.49 µM	19.7 ± 1.52 µM	> 20 µM	2.03 to 19.7 µM											
COc1cc(OC)cc(C2OCC3C(c4ccc(OC)c(OC)c4)OCC23)c1 (stereo not drawn) [Compound 8, 2-(3,4-dimethoxyphenyl)-6-(3,5-dimethoxyphenyl)-3,7-dioxabicyclo[3.3.0]octane]	21.9 ± 2.96 µM	> 20 µM	15.9 ± 0.36 µM	16.5 ± 0.94 µM	> 20 µM	> 20 µM	> 20 µM												
COc1cc(/C=C/C(=O)NCCc2ccc(O)cc2)ccc1O [Compound 9, N-trans-feruloyltyramine]	> 20 µM	> 20 µM	> 20 µM	> 20 µM	> 20 µM	> 20 µM	> 20 µM												
COc1cc2c(cc1OC)-c1c3c(cc4ccnc(c14)C2=O)OCO3 [Compound 10, dicentrinone]										36.9 ± 1.13 µM	> 20 µM		> 20 µM	> 20 µM	> 20 µM	> 20 µM	> 20 µM		
COc1cccc2c1-c1c3c(cc4ccnc(c14)C2=O)OCO3 [Compound 11, oxoputerine]	7.05 ± 0.2 µM	6.72 ± 0.36 µM	7.67 ± 0.3 µM	7.31 ± 0.07 µM	7.21 ± 0.79 µM	7.28 ± 0.23 µM	6.59 ± 0.43 µM					6.59 to 11 µM							
CC1(C(=O)O)CCCC2(C)C1CC(O)C13CC4C(CC21)C4(C)C3 (stereo not drawn) [Compound 14, ciliaric acid]	> 20 µM	> 20 µM	> 20 µM	> 20 µM	> 20 µM	> 20 µM	> 20 µM												
COc1cccc2c1C(=O)c1c(C)cc(=O)[nH]c1C2=O [Compound 15, 6-methoxymarcanine A]	8.33 ± 0.63 µM	9.55 ± 2.83 µM	38.1 ± 0.52 µM	> 20 µM	12.3 ± 0.37 µM	10.15 ± 0.07 µM	38.7 ± 1.12 µM	2.03 to 19.7 µM	> 20 µM										8.33 to 12.3 µM
COc1cc2c(cc1O)-c1cc3ccc(O)c(OC)c3c[n+]1CC2 [Compound 16, stepharanine]										> 20 µM	> 20 µM		> 20 µM	> 20 µM	> 20 µM	> 20 µM	> 20 µM		
Cc1c2ccncc2c(C)c2c1[nH]c1ccccc12 [Ellipticine, reference compound]	2.15 ± 0.08 µM	2.03 ± 0.08 µM	2.36 ± 0.04 µM	2.68 ± 0.08 µM	2.64 ± 0.24 µM	2.4 ± 0.04 µM	2.56 ± 0.04 µM												

From PMC7336994, “Cytotoxic compounds from the leaves and stems of the endemic Thai plant Mitrephora sirikitiae” (Pharmaceutical Biology, 2020)
